Where two headings read alike, the source gives them in different places.
Key:
[1] = tested on: human venous whole blood (IFN-γ); test: Human whole blood IFN-γ assay; type: cell-based
Experimental: Human venous whole blood (22.5 μL per well), obtained from healthy donors, was pre-treated with compounds for one hour at 37° C. in a humidified 95% air/5% CO2 incubator. The blood was stimulated with 2.5 μL anti-human CD3 and anti-CD28 mAb at a final concentration of 1 μg/mL each for 24 hours at 37° C. IFN-γ in the supernatants was measured using AlphLISA kit (Cat #AL217).

[2] = target: human DGKζ (Homo sapiens (Human), UniProt Q13574); test: DGKζ LIPGLO assay (extruded liposome substrate, ADP-Glo luminescence); type: biochemical
Chain of human DGKζ (Q13574 other isoform, or with tags, fused parts or gaps): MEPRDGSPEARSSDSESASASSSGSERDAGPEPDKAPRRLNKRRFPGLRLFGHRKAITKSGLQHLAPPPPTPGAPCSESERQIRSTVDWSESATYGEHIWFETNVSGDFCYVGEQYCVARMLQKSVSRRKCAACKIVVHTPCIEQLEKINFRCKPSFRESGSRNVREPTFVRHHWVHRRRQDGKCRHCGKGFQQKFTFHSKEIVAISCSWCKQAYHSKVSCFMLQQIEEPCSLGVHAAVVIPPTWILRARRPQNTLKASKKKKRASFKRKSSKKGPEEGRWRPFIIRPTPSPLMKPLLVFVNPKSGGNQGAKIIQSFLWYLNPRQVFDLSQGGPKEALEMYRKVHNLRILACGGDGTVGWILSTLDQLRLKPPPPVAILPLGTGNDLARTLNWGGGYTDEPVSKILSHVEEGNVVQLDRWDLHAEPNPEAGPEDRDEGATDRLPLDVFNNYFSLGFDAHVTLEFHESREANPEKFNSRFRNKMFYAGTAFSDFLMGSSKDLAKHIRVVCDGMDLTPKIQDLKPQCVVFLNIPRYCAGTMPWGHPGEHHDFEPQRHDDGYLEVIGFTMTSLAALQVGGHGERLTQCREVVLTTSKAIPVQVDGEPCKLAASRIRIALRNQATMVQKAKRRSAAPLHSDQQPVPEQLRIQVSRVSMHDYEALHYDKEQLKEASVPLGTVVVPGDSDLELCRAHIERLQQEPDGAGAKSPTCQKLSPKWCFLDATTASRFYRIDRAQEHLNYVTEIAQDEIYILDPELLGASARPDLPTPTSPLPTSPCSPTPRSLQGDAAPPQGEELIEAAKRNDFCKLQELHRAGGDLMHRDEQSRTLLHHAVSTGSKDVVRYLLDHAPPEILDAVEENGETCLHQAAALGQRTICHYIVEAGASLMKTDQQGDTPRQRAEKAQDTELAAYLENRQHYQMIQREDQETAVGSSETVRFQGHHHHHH

[3] = target: human DGKα (Homo sapiens (Human), UniProt P23743); test: DGKα LIPGLO assay (extruded liposome substrate, ADP-Glo luminescence); type: biochemical
Chain of human DGKα (P23743 whole entry, looked up): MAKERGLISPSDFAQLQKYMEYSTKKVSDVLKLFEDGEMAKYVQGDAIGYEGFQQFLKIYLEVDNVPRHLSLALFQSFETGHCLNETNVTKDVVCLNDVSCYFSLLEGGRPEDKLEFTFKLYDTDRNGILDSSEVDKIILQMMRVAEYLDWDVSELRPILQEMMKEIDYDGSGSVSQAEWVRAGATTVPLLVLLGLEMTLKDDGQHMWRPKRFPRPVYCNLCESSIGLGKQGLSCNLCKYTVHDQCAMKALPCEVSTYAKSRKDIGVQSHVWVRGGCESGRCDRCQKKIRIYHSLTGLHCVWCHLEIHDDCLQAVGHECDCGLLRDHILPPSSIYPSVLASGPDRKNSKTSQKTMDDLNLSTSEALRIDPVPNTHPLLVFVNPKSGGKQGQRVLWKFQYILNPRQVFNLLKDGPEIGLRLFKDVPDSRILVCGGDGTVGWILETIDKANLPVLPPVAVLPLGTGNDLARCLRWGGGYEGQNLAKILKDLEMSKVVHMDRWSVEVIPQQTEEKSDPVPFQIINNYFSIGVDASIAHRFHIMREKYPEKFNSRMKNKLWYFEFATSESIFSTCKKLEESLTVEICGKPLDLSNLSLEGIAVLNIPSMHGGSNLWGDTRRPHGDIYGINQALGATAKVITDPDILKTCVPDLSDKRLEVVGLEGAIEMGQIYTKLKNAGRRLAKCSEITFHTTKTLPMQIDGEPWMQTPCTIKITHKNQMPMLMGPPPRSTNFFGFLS

[4] = Homo sapiens, whole blood, normalized to 3 μM reference compound as 100% activation, read-out: IFN-γ Whole Blood Normalized EC50
[5] = liposome assay, read-out: DGK zeta LIPGLO IC50
[6] = liposome assay, read-out: DGK alpha LIPGLO IC50
[7] = whole blood, normalized to 3 μM reference compound as 100% activation, read-out: IFN-γ Whole Blood Normalized EC50
[8] = human whole blood, anti-CD3 plus anti-CD28 stimulation, 24 hours, read-out: IFN-γ Whole Blood EC50
[9] = liposome (LIPGLO) assay, read-out: DGK zeta (liposome assay) IC50
[10] = liposome (LIPGLO) assay, read-out: DGK alpha (liposome assay) IC50

| Structure (SMILES) | EC50 [1, 4] | IC50 [2, 5] | IC50 [3, 6] | EC50 [1, 7] | EC50 [1, 8] | IC50 [2, 9] | IC50 [3, 10] |
| --- | --- | --- | --- | --- | --- | --- | --- |
| C[C@@H]1CN(c2nc(=O)n(C)c3ccc(C#N)nc23)[C@@H](C)CN1Cc1ccc2c(c1)OC(F)(F)O2 [Example 135, 4-((2S,5R)-4-((2,2-difluorobenzo[d][1,3]dioxol-5-yl)methyl)-2,5-dimethylpiperazin-1-yl)-1-methyl-2-oxo-1,2-dihydropyrido[3,2-d]pyrimidine-6-carbonitrile] | 10700 nM | 1410 nM | 4500 nM |  |  |  |  |
| CC[C@@H]1CN(c2nc(=O)n(C)c3ccc(C#N)nc23)[C@@H](C)CN1C(C)c1ccc(OC(F)(F)F)cc1F (single isomer, unassigned) [Example 82] |  | 2450 nM | 1540 nM | 530 nM |  |  |  |
| C[C@@H]1CN(c2nc(=O)n(C)c3ccc(C#N)nc23)[C@@H](C)CN1Cc1cc(F)c(F)cc1Cl [Example 134, 4-((2S,5R)-4-(2-chloro-4,5-difluorobenzyl)-2,5-dimethylpiperazin-1-yl)-1-methyl-2-oxo-1,2-dihydropyrido[3,2-d]pyrimidine-6-carbonitrile] | 3670 nM | 780 nM | 4260 nM |  |  |  |  |
| CC[C@@H]1CN(c2nc(=O)n(C)c3ccc(C#N)nc23)[C@@H](C)CN1C(C)c1ccc(OC)cc1 (single isomer, unassigned) [Example 57] |  | 930 nM | 960 nM | 1900 nM |  |  |  |
| CC[C@@H]1CN(c2nc(=O)n(C)c3ccc(C#N)nc23)[C@@H](C)CN1C(c1ccc(F)cc1)c1cccc(C(F)(F)F)n1 (single isomer, unassigned) [Example 65] |  | 100 nM | 1190 nM | 360 nM |  |  |  |
| C[C@@H]1CN(c2nc(=O)n(C)c3ccc(C#N)nc23)[C@@H](C)CN1C(c1ccc(F)cc1)c1ccon1 (single isomer, unassigned) [Example 162] |  | 1150 nM | 56 nM | 1850 nM |  |  |  |
| CC[C@@H]1CN(c2nc(=O)n(C)c3ccc(C#N)nc23)[C@@H](C)CN1C(C)c1ccc(C#N)cc1 (single isomer, unassigned) [Example 60] |  | 28 nM | 30 nM | 23 nM |  |  |  |
| CC[C@H]1CN(C(C)c2ccc(OCC3CC3)cc2F)[C@H](CC)CN1c1nc(=O)n(C)c2ccc(C#N)nc12 (single isomer, unassigned) [Example 33] |  | 5930 nM | 2560 nM | 3830 nM |  |  |  |
| CC[C@@H]1CN(c2nc(=O)n(C)c3ccc(C#N)nc23)[C@@H](C)CN1C(C)c1ccc(OCC2CC2)cc1 (single isomer, unassigned) [Example 68] | 1900 nM | 480 nM | 1630 nM |  |  |  |  |
| CC[C@H]1CN(C(C)c2ccc(OCC3CC3)cc2F)[C@H](CC)CN1c1nc(=O)n(C)c2ccc(C#N)nc12 (single isomer, unassigned) [Example 32] |  | 31 nM | 500 nM | 19 nM |  |  |  |
| CC(c1ccc(OC(C)(C)C#N)cc1)N1C[C@H](C)N(c2nc(=O)n(C)c3ccc(C#N)nc23)C[C@H]1C (stereo partly drawn) [Example 377, 4-((2S,5R)-4-(1-(4-((2-cyanopropan-2-yl)oxy)phenyl)ethyl)-2,5-dimethylpiperazin-1-yl)-1-methyl-2-oxo-1,2-dihydropyrido[3,2-d]pyrimidine-6-carbonitrile] |  |  |  |  | 520 nM | 370 nM | 240 nM |
| CC(c1ccc(C2CC2)cc1F)N1C[C@H](C)N(c2nc(=O)n(C)c3ccc(C#N)nc23)C[C@H]1C (single isomer, unassigned) [Example 169] |  | 2180 nM | 4620 nM | 1330 nM |  |  |  |
| CC[C@@H]1CN(c2nc(=O)n(C)c3ccc(C#N)nc23)[C@@H](C)CN1C(C)c1ccc(C2CC2)cc1 (single isomer, unassigned) [Example 63] |  | 21 nM | 40 nM | 70 nM |  |  |  |
| C[C@@H]1CN(c2nc(=O)n(C)c3ccc(C#N)nc23)[C@@H](C)CN1C(c1ccc(F)cc1)c1csc(C(F)(F)F)n1 (single isomer, unassigned) [Example 171] |  | 560 nM | 1560 nM | 220 nM |  |  |  |
| C[C@H]1CN(C(c2ccc(F)cc2)c2ccc(C(F)(F)F)cn2)[C@H](CO)CN1c1nc(=O)n(C)c2ccc(C#N)nc12 (single isomer, unassigned) [Example 182] |  | 2030 nM | 430 nM | 2530 nM |  |  |  |
| C[C@@H]1CN(c2nc(=O)n(C)c3ccc(C#N)nc23)[C@@H](C)CN1Cc1cc(F)c(F)c(F)c1 [Example 130, 4-((2S,5R)-2,5-dimethyl-4-(3,4,5-trifluorobenzyl)piperazin-1-yl)-1-methyl-2-oxo-1,2-dihydropyrido[3,2-d]pyrimidine-6-carbonitrile] | 4070 nM | 960 nM | 12400 nM |  |  |  |  |

| Structure (SMILES) | EC50 [1, 4] | IC50 [2, 5] | IC50 [3, 6] | EC50 [1, 7] | EC50 [1, 8] | IC50 [2, 9] | IC50 [3, 10] |
| --- | --- | --- | --- | --- | --- | --- | --- |
| CCC(c1ccc(OC(F)(F)F)cc1)N1C[C@H](C)N(c2nc(=O)n(C)c3ccc(C#N)nc23)C[C@H]1C (single isomer, unassigned) [Example 154] | 1430 nM | 370 nM | 16 nM |  |  |  |  |
| CC[C@@H]1CN(c2nc(=O)n(C)c3ccc(C#N)nc23)[C@@H](C)CN1C(c1ccc(F)cc1)c1ccccn1 (single isomer, unassigned) [Example 87] |  | 310 nM | 28 nM | 440 nM |  |  |  |
| C[C@@H]1CN(c2nc(=O)n(C)c3ccc(C#N)nc23)[C@@H](C)CN1C(c1ccc(F)cc1)c1ccc(C#N)cc1 (stereo partly drawn) [Example 375, 4-((2S,5R)-4-((4-cyanophenyl)(4-fluorophenyl)methyl)-2,5-dimethylpiperazin-1-yl)-1-methyl-2-oxo-1,2-dihydropyrido[3,2-d]pyrimidine-6-carbonitrile] |  |  |  |  | 2160 nM | 6050 nM | 1390 nM |
| CC[C@@H]1CN(c2nc(=O)n(C)c3ccc(C#N)nc23)[C@@H](CC)CN1Cc1ccc(OC(F)(F)F)cc1F [Example 27, 4-((2S,5R)-2,5-diethyl-4-(2-fluoro-4-(trifluoromethoxy)benzyl)piperazin-1-yl)-1-methyl-2-oxo-1,2-dihydropyrido[3,2-d]pyrimidine-6-carbonitrile] | 620 nM | 230 nM | 2 nM |  |  |  |  |
| CC[C@H]1CN(C(C)c2ccc3c(c2)OC(F)(F)O3)[C@H](CC)CN1c1nc(=O)n(C)c2ccc(C#N)nc12 (single isomer, unassigned) [Example 15] |  | 1220 nM | 490 nM | 1740 nM |  |  |  |
| CC(c1ccc(OC(F)(F)F)cc1)N1C[C@H](C)N(c2nc(=O)n(C)c3ccc(C#N)nc23)C[C@H]1C (single isomer, unassigned) [Example 132] |  | 5950 nM | 700 nM | 2650 nM |  |  |  |
| CC[C@H]1CN(C(C)c2ccc(C(F)(F)F)cc2)[C@H](CC)CN1c1nc(=O)n(C)c2ccc(C#N)nc12 (single isomer, unassigned) [Example 21] |  | 1010 nM | 386 nM | 2850 nM |  |  |  |
| C[C@@H]1CN(c2nc(=O)n(C)c3ccc(C#N)nc23)[C@@H](C)CN1Cc1ccc(F)cc1Cl [Example 136, 4-((2S,5R)-4-(2-chloro-4-fluorobenzyl)-2,5-dimethylpiperazin-1-yl)-1-methyl-2-oxo-1,2-dihydropyrido[3,2-d]pyrimidine-6-carbonitrile] | 650 nM | 220 nM | 920 nM |  |  |  |  |
| COC[C@@H]1CN(c2nc(=O)n(C)c3ccc(C#N)nc23)[C@@H](C)CN1C(c1ccc(F)cc1)c1ccc(C(F)(F)F)cn1 (single isomer, unassigned) [Example 178] | 91 nM | 130 nM | 290 nM |  |  |  |  |
| CC[C@@H]1CN(c2nc(=O)n(C)c3ccc(C#N)nc23)[C@@H](C)CN1Cc1ccc(OC(F)(F)F)cc1F [Example 62, 4-((2S,5R)-5-ethyl-4-(2-fluoro-4-(trifluoromethoxy)benzyl)-2-methylpiperazin-1-yl)-1-methyl-2-oxo-1,2-dihydropyrido[3,2-d]pyrimidine-6-carbonitrile] | 200 nM | 220 nM | 58 nM |  |  |  |  |
| CCC(c1ccc(OC(F)F)cc1)N1C[C@H](C)N(c2nc(=O)n(C)c3ccc(C#N)nc23)C[C@H]1CC (single isomer, unassigned) [Example 78] | 75 nM | 1130 nM | 470 nM |  |  |  |  |
| Cc1ccc(C(c2ccc(C)cc2)N2C[C@H](C)N(c3nc(=O)n(C)c4ccc(C#N)nc34)C[C@H]2C)cc1 [Example 125] | 500 nM | 990 nM | 740 nM |  |  |  |  |
| COC[C@@H]1CN(c2nc(=O)n(C)c3ccc(C#N)nc23)[C@@H](C)CN1C(C)c1ccc(C(F)(F)F)cc1 (single isomer, unassigned) [Example 175] |  | 830 nM | 980 nM | 1690 nM |  |  |  |
| CC[C@@H]1CN(c2nc(=O)n(C)c3ccc(C#N)nc23)[C@@H](C)CN1C(c1ccc(F)cc1)c1cnc(C2CC2)s1 (single isomer, unassigned) [Example 103] |  | 36 nM | 170 nM | 94 nM |  |  |  |
| CC[C@@H]1CN(c2nc(=O)n(C)c3ccc(C#N)nc23)[C@@H](C)CN1C(C)c1ccc(OCC2CC2)cc1F (single isomer, unassigned) [Example 70] |  | 1410 nM | 840 nM | 1440 nM |  |  |  |
| CC(c1ccc(OC(F)(F)F)cc1)N1C[C@H](C)N(c2nc(=O)n(C)c3ccc(C#N)nc23)C[C@H]1CO (single isomer, unassigned) [Example 184] |  | 45000 nM | 2660 nM | 20000 nM |  |  |  |

From patent US11584747B2, “Substituted pyridopyrimidinonyl compounds useful as T cell activators” (BRISTOL-MYERS SQUIBB COMPANY, priority 2019, dated 2023)
